According to publication PMC9369311, “Examination of Intracellular GPCR-Mediated Signaling with High Temporal Resolution” (International Journal of Molecular Sciences, 2022):

What was measured:
CNG channel (A2 homomer) = settings: read-out: EC50 for opening the CNG channel, electrophysiological experiments, ref Ludwig et al., 1990; cited from earlier work
DmOctβ1 receptor = target: T1, DmOctβ1 receptor (Drosophila melanogaster, UniProt Q9VCZ3); assay: Stopped-flow flash photolysis of caged octopamine in Fluo-4-loaded flpTM-DmOctβ1 cells; format: cell-based; settings: for response time after UV-flash: 10 µM caged compound, 50 ms flash, 100 µM IBMX
T1 construct: expressed in transfected cells; host or cells: flpTM cells (HEK293 flpIn, Invitrogen #750-07, carrying the CNGA2 variant)
T1 sequence (Q9VCZ3 1-508): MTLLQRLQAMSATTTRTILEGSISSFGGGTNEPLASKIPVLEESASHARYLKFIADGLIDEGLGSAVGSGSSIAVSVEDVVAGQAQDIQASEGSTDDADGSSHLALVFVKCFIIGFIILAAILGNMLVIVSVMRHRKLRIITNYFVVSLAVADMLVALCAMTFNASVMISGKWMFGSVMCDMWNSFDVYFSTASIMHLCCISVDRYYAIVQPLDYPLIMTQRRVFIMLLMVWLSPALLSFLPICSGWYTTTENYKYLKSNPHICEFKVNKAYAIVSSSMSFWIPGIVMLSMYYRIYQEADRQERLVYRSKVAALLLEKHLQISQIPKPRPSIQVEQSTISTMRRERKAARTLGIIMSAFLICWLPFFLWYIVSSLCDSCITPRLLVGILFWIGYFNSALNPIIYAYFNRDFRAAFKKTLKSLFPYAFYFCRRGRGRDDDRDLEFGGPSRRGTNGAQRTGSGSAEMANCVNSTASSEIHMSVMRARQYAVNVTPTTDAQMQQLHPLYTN
Source text: Neutral density filters that regulate the transmission of light (5%, 25%, 50%, 80%, 100%) were installed, allowing application of different light intensities.
In the previous stopped-flow experiments, we initiated the DmOctβ1 receptor-activated reaction cascade by mixing cells with increasing concentrations of octopamine. Now, we used a similar strategy but substituted the biogenic amine for a constant concentration of octopamine fused to a coumarin-based cage group ({8-[bis(carboxymethyl)aminomethyl]-6-bromo-7-hydroxycoumarin-4-yl}methoxycarbon-yl; BBHCMOC-octopamine) from which the biologically active octopamine was released by light flashes. The Fluo-4-loaded flpTM-DmOctβ1 cells were mixed with a final concentration of 10 µM BBHCMOC-octopamine in the cuvette of the stopped-flow apparatus. After 2 s, a UV-flash was triggered for 50 ms and the fluorescence intensities were recorded. The time when triggering the light flash was defined as time point t = 0. Different light intensities were successively applied (5%, 25%, 50%, 80%, 100% intensity). To avoid fluctuations in the [cAMP]i due to cell-endogenous phosphodiesterase activity, the experiments were performed in the presence of 100 µM IBMX. Figure 7 summarizes the results that were obtained with BBHCMOC-octopamine.
For the photolysis of the caged compounds with ultraviolet (UV)-light, a Xe-flash lamp (JML-C2; Rapp Opto Electronics, Wedel, Germany) was coupled to the cuvette via an UV-light permeable light guide (Schott). A UV-2 interference filter was placed between the Xe-flash lamp and light guide to select for the UV-light needed for the photolysis of the caged compounds. Additionally, it prevents the photomultiplier from being hit by light that is able to pass the emission filter. […] To maximize the detection of the emission light, a test solution containing 50 nM of fluorescein in ES was added to the cuvette and the light guide was fixed to the Xe/Hg-lamp at a position where the photomultiplier detected maximal intensity.

[1] = in vitro; read-out: dissociation constant (Kd) for Ca2+; cited from earlier work

Nc1ncnc2c1ncn2[C@@H]1O[C@@H]2COP(=O)(O)O[C@H]2[C@H]1O [cAMP, cyclic adenosine monophosphate]
EC50 (CNG channel (A2 homomer)): ~2000 nM

O=C(O)CN(CC(=O)O)Cc1c(O)c(Br)cc2c(COC(=O)NCC(O)c3ccc(O)cc3)cc(=O)oc12 (centres unmarked) [BBHCMOC-octopamine]
response time after UV-flash (DmOctβ1 receptor; 5% light intensity): about 16 s
response time after UV-flash (DmOctβ1 receptor; 100% light intensity): 6 s and ≈ 6 s
octopamine released by photolysis (DmOctβ1 receptor; from 10 µM BBHCMOC-octopamine, based on quantum yield): approximately 1 µM

Cc1ccc(N(CC(=O)O)CC(=O)O)c(OCCOc2cc(-c3c4cc(F)c(=O)cc-4oc4cc(O)c(F)cc34)ccc2N(CC(=O)O)CC(=O)O)c1 [Fluo-4]
Kd [1]: 345 nM
